Like-named read-outs stand apart in the source and are kept apart here.
Tested on: co-cultured μBBB models (bEnd.3 endothelial cells and C8-D1A astrocytes)
Conditions: for period of transient TEER drop: co-cultured μBBB on day 4
Protocol: To evaluate the fabricated μBBB system, three methods were employed: (1) Cell imaging to observe structure and morphology, (2) TEER levels to evaluate cell confluence and tight junction integrity, and (3) permeability assays to evaluate barrier selectivity. Cells were imaged with a Live/Dead assay to verify cell viability, and immunostained to look at expression of astrocyte marker GFAP and tight junction component […] (ZO-1). TEER was measured as an indicator of cell confluence and tight junction integrity, with time to maximum TEER being indicative of BBB development time. Fluxes of fluorescent-labeled tracer molecules were measured to assess permeability to larger solutes. […] Permeability was measured in μBBB models exposed to DMEM:F12 media with elevated pH (>10) for 4 h.
Over the course of the μBBB model evaluation experiments, TEER was measured twice a day to monitor cell confluence and development of tight junctions. For measurement of TEER, voltage and current electrode wires were connected via an electrode adaptor (WPI) to an EVOM2 epithelial voltohmmeter (WPI). The EVOM2 passes a constant 10 μA AC current at 12.5 Hz while measuring resistance. To calculate TEER, initial D0 Background resistances Rb were subtracted from total resistance RC at each time point and normalized for area, giving TEER values in Ωcm^2 as in the following equation: TEER=(RC−Rb)A
TEER of transwell cultures were measured daily by placing them in an Endohm chamber (WPI) and connecting it to the EVOM2.

NCCc1c[nH]cn1 [histamine]
time for TEER to return to initial levels (100 μM histamine): within six minutes | period of transient TEER drop (100 μM histamine): 5 to 7 min | time for TEER to return to initial levels (150 μM histamine): ≤ 15 min | period of transient TEER drop (150 μM histamine): 8 to 15 min

From US9513280B2, “Microfluidic biological barrier model and associated method” (The University of Utah Research Foundation, priority 2012, dated 2016)
